Source: ChEMBL document CHEMBL6078713, “Synthesis and mechanistic studies of 4-aminoquinoline-Isatin molecular hybrids and Schiff's bases as promising antimicrobial agents” (Eur J Med Chem, 2025)
In brackets after ≈: the same amount, converted by molar mass. Activity calls are given as the source filed them. No cut-off for these calls is given here.

Columns and labels:
Staphylococcus aureus [1] = test: Bacteriostatic activity against Staphylococcus aureus MTCC 902 assessed as reduction in bacterial growth at 2 times MIC measured upto 10 hrs by absorbance based assay; assay type: functional, organism-based
Staphylococcus aureus [2] = test: Antibacterial activity against Staphylococcus aureus MTCC 902 assessed as diameter of zone of inhibition at 2 times MIC incubated overnight by disk diffusion method; assay type: functional
Enterococcus faecalis [3] = test: Antibacterial activity against Enterococcus faecalis MTCC 439 assessed as diameter of zone of inhibition at 2 times MIC incubated overnight by disk diffusion method; assay type: functional
Escherichia coli [4] = test: Antibacterial activity against Escherichia coli MTCC 443 assessed as diameter of zone of inhibition at MIC incubated overnight by disk diffusion method; assay type: functional
Staphylococcus aureus [5] = test: Antibacterial activity against Staphylococcus aureus MTCC 902 assessed as inhibition of bacterial growth incubated overnight by spectrophotometry relative to control; assay type: functional
Enterococcus faecalis [6] = test: Antibacterial activity against Enterococcus faecalis MTCC 439 assessed as diameter of zone of inhibition at 500 ug/ml by agar disk diffusion method; assay type: functional; conditions: read-out: DIZ
Enterococcus faecalis [7] = test: Antibacterial activity against Enterococcus faecalis MTCC 439 assessed as diameter of zone of inhibition at MIC incubated overnight by disk diffusion method; assay type: functional
Escherichia coli [8] = test: Antibacterial activity against Escherichia coli MTCC 443 assessed as diameter of zone of inhibition at 500 ug/ml by agar disk diffusion method; assay type: functional; conditions: read-out: DIZ
Escherichia coli [9] = test: Synergistic antibacterial activity against Escherichia coli MTCC 443 assessed as inhibition of bacterial growth incubated overnight in presence of ciprofloxacin by serial dilution based spectrophotometer; assay type: functional
Escherichia coli [10] = test: Antibacterial activity against Escherichia coli MTCC 443 assessed as inhibition of bacterial growth incubated overnight by serial dilution based spectrophotometer; assay type: functional
Enterococcus faecalis [11] = test: Synergistic antibacterial activity against Enterococcus faecalis MTCC 439 assessed as inhibition of bacterial growth incubated overnight in presence of ciprofloxacin by serial dilution based spectrophotometer; assay type: functional
Staphylococcus aureus [12] = test: Antibacterial activity against Staphylococcus aureus MTCC 902 assessed as diameter of zone of inhibition at MIC incubated overnight by disk diffusion method; assay type: functional
Staphylococcus aureus [13] = test: Synergistic antibacterial activity against Staphylococcus aureus MTCC 902 assessed as fractional inhibitory concentration index incubated overnight in presence of ciprofloxacin by microdilution checkerboard assay; assay type: functional
Bacillus subtilis [14] = test: Antibacterial activity against Bacillus subtilis MTCC 736 assessed as inhibition of bacterial growth incubated overnight by spectrophotometry relative to control; assay type: functional
Staphylococcus aureus [15] = test: Antibacterial activity against Staphylococcus aureus MTCC 902 assessed as diameter of zone of inhibition at 0.5 times MIC incubated overnight by disk diffusion method; assay type: functional
Pseudomonas aeruginosa [16] = test: Ratio of MBC for antibacterial activity against Pseudomonas aeruginosa MTCC 2453 to MIC for bactericidal activity against Pseudomonas aeruginosa MTCC 2453; assay type: functional
Escherichia coli [17] = test: Antibacterial activity against Escherichia coli MTCC 443 assessed as diameter of zone of inhibition at 2 times MIC incubated overnight by disk diffusion method; assay type: functional
Staphylococcus aureus [18] = test: Bacteriostatic activity against Staphylococcus aureus MTCC 902 assessed as reduction in bacterial growth at 0.5 to 1 times MIC measured upto 24 hrs by absorbance based assay; assay type: functional, organism-based
Enterococcus faecalis [19] = test: Antibacterial activity against Enterococcus faecalis MTCC 439 assessed as diameter of zone of inhibition at 0.5 times MIC incubated overnight by disk diffusion method; assay type: functional
Enterococcus faecalis [20] = test: Bactericidal activity against Enterococcus faecalis MTCC 439 assessed as inhibition of bacterial growth incubated overnight; assay type: functional
Staphylococcus aureus [21] = test: Bactericidal activity against Staphylococcus aureus MTCC 902 assessed as inhibition of bacterial growth incubated overnight; assay type: functional
Bacillus subtilis [22] = test: Antibacterial activity against Bacillus subtilis MTCC 736 assessed as inhibition of bacterial growth incubated overnight by serial dilution based spectrophotometer; assay type: functional
Enterococcus faecalis [23] = test: Ratio of MBC for antibacterial activity against Enterococcus faecalis MTCC 439 to MIC for bactericidal activity against Enterococcus faecalis MTCC 439; assay type: functional
Salmonella typhi [24] = test: Antibacterial activity against Salmonella typhi assessed as diameter of zone of inhibition at 2 times MIC incubated overnight by disk diffusion method; assay type: functional, Salmonella enterica subsp. enterica serovar Typhi
Pseudomonas aeruginosa [25] = test: Antibacterial activity against Pseudomonas aeruginosa MTCC 2453 assessed as inhibition of bacterial growth incubated overnight by spectrophotometry relative to control; assay type: functional
Salmonella typhi [26] = test: Antibacterial activity against Salmonella typhi assessed as inhibition of bacterial growth incubated overnight by serial dilution based spectrophotometer; assay type: functional, Salmonella enterica subsp. enterica serovar Typhi; conditions: Salmonella enterica
Escherichia coli [27] = test: Bacteriostatic activity against Escherichia coli MTCC 443 assessed as reduction in log phase of bacterial growth at 0.5 to 1 times MIC measured upto 24 hrs by absorbance based assay; assay type: functional, organism-based
Enterococcus faecalis [28] = test: Synergistic antibacterial activity against Enterococcus faecalis MTCC 439 assessed as fractional inhibitory concentration index incubated overnight in presence of ciprofloxacin by microdilution checkerboard assay; assay type: functional
Escherichia coli [29] = test: Synergistic antibacterial activity against Escherichia coli MTCC 443 assessed as fractional inhibitory concentration index incubated overnight in presence of ciprofloxacin by microdilution checkerboard assay; assay type: functional
Pseudomonas aeruginosa [30] = test: Antibacterial activity against Pseudomonas aeruginosa MTCC 2453 assessed as diameter of zone of inhibition at 0.5 times MIC incubated overnight by disk diffusion method; assay type: functional
Bacillus subtilis [31] = test: Antibacterial activity against Bacillus subtilis MTCC 736 assessed as diameter of zone of inhibition at MIC incubated overnight by disk diffusion method; assay type: functional
Pseudomonas aeruginosa [32] = test: Antibacterial activity against Pseudomonas aeruginosa MTCC 2453 assessed as inhibition of bacterial growth incubated overnight by serial dilution based spectrophotometer; assay type: functional
Salmonella typhi [33] = test: Antibacterial activity against Salmonella typhi assessed as diameter of zone of inhibition at 0.5 times MIC incubated overnight by disk diffusion method; assay type: functional, Salmonella enterica subsp. enterica serovar Typhi
Staphylococcus aureus [34] = test: Antibacterial activity against Staphylococcus aureus MTCC 902 assessed as inhibition of bacterial growth incubated overnight by serial dilution based spectrophotometer; assay type: functional
Escherichia coli [35] = test: Antibacterial activity against Escherichia coli MTCC 443 assessed as diameter of zone of inhibition at 0.5 times MIC incubated overnight by disk diffusion method; assay type: functional
Pseudomonas aeruginosa [36] = test: Bactericidal activity against Pseudomonas aeruginosa MTCC 2453 assessed as inhibition of bacterial growth incubated overnight; assay type: functional
Pseudomonas aeruginosa [37] = test: Antibacterial activity against Pseudomonas aeruginosa MTCC 2453 assessed as diameter of zone of inhibition at 2 times MIC incubated overnight by disk diffusion method; assay type: functional
Enterococcus faecalis [38] = test: Antibacterial activity against Enterococcus faecalis MTCC 439 assessed as inhibition of bacterial growth incubated overnight by spectrophotometry relative to control; assay type: functional
Staphylococcus aureus [39] = test: Antibacterial activity against Staphylococcus aureus MTCC 902 assessed as diameter of zone of inhibition at 500 ug/ml by agar disk diffusion method; assay type: functional; conditions: read-out: DIZ
Escherichia coli [40] = test: Bacteriostatic activity against Escherichia coli MTCC 443 assessed as reduction in bacterial growth at 2 times MIC measured upto 10 hrs by absorbance based assay; assay type: functional, organism-based
Bacillus subtilis [41] = test: Antibacterial activity against Bacillus subtilis MTCC 736 assessed as diameter of zone of inhibition at 2 times MIC incubated overnight by disk diffusion method; assay type: functional
Pseudomonas aeruginosa [42] = test: Antibacterial activity against Pseudomonas aeruginosa MTCC 2453 assessed as diameter of zone of inhibition at MIC incubated overnight by disk diffusion method; assay type: functional
Staphylococcus aureus [43] = test: Synergistic antibacterial activity against Staphylococcus aureus MTCC 902 assessed as inhibition of bacterial growth incubated overnight in presence of ciprofloxacin by serial dilution based spectrophotometer; assay type: functional
Pseudomonas aeruginosa [44] = test: Synergistic antibacterial activity against Pseudomonas aeruginosa MTCC 2453 assessed as fractional inhibitory concentration index incubated overnight in presence of ciprofloxacin by microdilution checkerboard assay; assay type: functional
Staphylococcus aureus [45] = test: Ratio of MBC for antibacterial activity against Staphylococcus aureus MTCC 902 to MIC for bactericidal activity against Staphylococcus aureus MTCC 902; assay type: functional
Escherichia coli [46] = test: Bactericidal activity against Escherichia coli MTCC 443 assessed as inhibition of bacterial growth incubated overnight; assay type: functional
Enterococcus faecalis [47] = test: Antibacterial activity against Enterococcus faecalis MTCC 439 assessed as inhibition of bacterial growth incubated overnight by serial dilution based spectrophotometer; assay type: functional
Salmonella typhi [48] = test: Antibacterial activity against Salmonella typhi assessed as diameter of zone of inhibition at MIC incubated overnight by disk diffusion method; assay type: functional, Salmonella enterica subsp. enterica serovar Typhi
Staphylococcus aureus [49] = test: Bacteriostatic activity against Staphylococcus aureus MTCC 902 assessed as reduction in bacterial growth at 2 times MIC measured upto 24 hrs by absorbance based assay; assay type: functional, organism-based
Pseudomonas aeruginosa [50] = test: Synergistic antibacterial activity against Pseudomonas aeruginosa MTCC 2453 assessed as inhibition of bacterial growth incubated overnight in presence of ciprofloxacin by serial dilution based spectrophotometer; assay type: functional
Pseudomonas aeruginosa [51] = test: Antibacterial activity against Pseudomonas aeruginosa MTCC 2453 assessed as diameter of zone of inhibition at 500 ug/ml by agar disk diffusion method; assay type: functional; conditions: read-out: DIZ

O=C1Nc2ccc(Cl)cc2/C1=N/CCNc1ccnc2cc(Cl)ccc12
Activity (Staphylococcus aureus [1]): Active | diameter of the inhibition zone (DIZ) (Staphylococcus aureus [2]): 16 mm | diameter of the inhibition zone (DIZ) (Enterococcus faecalis [3]): 19 mm | diameter of the inhibition zone (DIZ) (Escherichia coli [4]): 12 mm | inhibition (INH) (Staphylococcus aureus [5]): >80% | zone of inhibition at 500 µg/mL (Enterococcus faecalis [6]): 8 mm | diameter of the inhibition zone (DIZ) (Enterococcus faecalis [7]): 17 mm | zone of inhibition at 500 µg/mL (Escherichia coli [8]): 11 mm | MIC (Escherichia coli [9]): 32 µg/mL | MIC (Escherichia coli [10]): 256 µg/mL (≈ 664 µM) | MIC (Enterococcus faecalis [11]): 64 µg/mL | diameter of the inhibition zone (DIZ) (Staphylococcus aureus [12]): 15 mm | fractional inhibitory concentration index (FICI) (Staphylococcus aureus [13]): 1.25 | inhibition (INH) (Bacillus subtilis [14]): >80% | diameter of the inhibition zone (DIZ) (Staphylococcus aureus [15]): 13 mm | Ratio (Pseudomonas aeruginosa [16]): 1 | diameter of the inhibition zone (DIZ) (Escherichia coli [17]): 11 mm | Activity (Staphylococcus aureus [18]): inactive | diameter of the inhibition zone (DIZ) (Enterococcus faecalis [19]): 12 mm | MBC (Enterococcus faecalis [20]): 512 µg/mL (≈ 1330 µM) | MBC (Staphylococcus aureus [21]): 256 µg/mL (≈ 664 µM) | MIC (Bacillus subtilis [22]): > 512 µg/mL | Ratio (Enterococcus faecalis [23]): 1 | diameter of the inhibition zone (DIZ) (Salmonella typhi [24]): 11 mm | inhibition (INH) (Pseudomonas aeruginosa [25]): >80% | MIC (Salmonella typhi [26]): > 512 µg/mL | Activity (Escherichia coli [27]): Active | fractional inhibitory concentration index (FICI) (Enterococcus faecalis [28]): 1.125 | fractional inhibitory concentration index (FICI) (Escherichia coli [29]): 0.249 | diameter of the inhibition zone (DIZ) (Pseudomonas aeruginosa [30]): 13 mm | diameter of the inhibition zone (DIZ) (Bacillus subtilis [31]): 6 mm | MIC (Pseudomonas aeruginosa [32]): 128 µg/mL (≈ 332 µM) | diameter of the inhibition zone (DIZ) (Salmonella typhi [33]): 13 mm | MIC (Staphylococcus aureus [34]): 256 µg/mL (≈ 664 µM) | diameter of the inhibition zone (DIZ) (Escherichia coli [35]): 11 mm | MBC (Pseudomonas aeruginosa [36]): 128 µg/mL (≈ 332 µM) | diameter of the inhibition zone (DIZ) (Pseudomonas aeruginosa [37]): 20 mm | inhibition (INH) (Enterococcus faecalis [38]): >80% | zone of inhibition at 500 µg/mL (Staphylococcus aureus [39]): 10 mm | Activity (Escherichia coli [40]): Active | diameter of the inhibition zone (DIZ) (Bacillus subtilis [41]): 8 mm | diameter of the inhibition zone (DIZ) (Pseudomonas aeruginosa [42]): 18 mm | MIC (Staphylococcus aureus [43]): 64 µg/mL | fractional inhibitory concentration index (FICI) (Pseudomonas aeruginosa [44]): 1.062 | Ratio (Staphylococcus aureus [45]): 1 | MBC (Escherichia coli [46]): > 512 µg/mL | MIC (Enterococcus faecalis [47]): 512 µg/mL (≈ 1330 µM) | diameter of the inhibition zone (DIZ) (Salmonella typhi [48]): 10 mm | Activity (Staphylococcus aureus [49]): inactive | MIC (Pseudomonas aeruginosa [50]): 8 µg/mL | zone of inhibition at 500 µg/mL (Pseudomonas aeruginosa [51]): 12 mm
